From BindingDB's records for doi:10.7270/Q2ZC817P (The Scripps Research Institute Molecular Screening Center, 2007)

Each compound was assayed against Sphingosine 1-phosphate receptor 1 (Homo sapiens, UniProt P21453) (assay: potentiators of S1P1 agonist response, dose response, cell-based, potentiator mode, 60K MLSMR set (AID 466)). Conditions: not given.
Sphingosine 1-phosphate receptor 1, sequence (P21453 whole entry): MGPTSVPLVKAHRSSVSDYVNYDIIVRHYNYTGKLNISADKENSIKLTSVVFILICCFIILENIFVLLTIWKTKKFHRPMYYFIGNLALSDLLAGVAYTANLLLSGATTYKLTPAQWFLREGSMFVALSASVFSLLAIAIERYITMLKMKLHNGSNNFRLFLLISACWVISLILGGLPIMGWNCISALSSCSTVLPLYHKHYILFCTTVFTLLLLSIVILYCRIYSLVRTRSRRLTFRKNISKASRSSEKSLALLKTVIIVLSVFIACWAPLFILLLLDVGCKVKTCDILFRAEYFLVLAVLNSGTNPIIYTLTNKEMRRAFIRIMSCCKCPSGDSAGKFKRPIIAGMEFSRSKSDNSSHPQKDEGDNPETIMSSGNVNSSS
CC(C)c1cc(C(=O)N2CCN(C(c3ccccc3)c3ccccc3)CC2)no1 [(4-benzhydrylpiperazin-1-yl)-(5-propan-2-yl-1,2-oxazol-3-yl)methanone] showed an EC50 of 8.42 µM. CCCc1cc(C(=O)N2CCN(C(c3ccccc3)c3ccccc3)CC2)no1 [(4-benzhydrylpiperazin-1-yl)-(5-propyl-1,2-oxazol-3-yl)methanone] gave an EC50 of 5.97 µM. O=C(c1cc(-c2ccco2)on1)N1CCN(C(c2ccccc2)c2ccccc2)CC1 [(4-benzhydrylpiperazin-1-yl)-[5-(furan-2-yl)-1,2-oxazol-3-yl]methanone] gave an EC50 of 5.82 µM. COc1cccc2sc(Nc3nc(-c4ccccn4)cs3)nc12 [(4-methoxy-1,3-benzothiazol-2-yl)-[4-(2-pyridyl)thiazol-2-yl]amine] gave an EC50 of 2.64 µM. For O=C(C1CCCN1S(=O)(=O)c1cccc2cccnc12)N1CCN(c2ccccc2)CC1 (stereo not given) [(4-phenyl-1-piperazinyl)-[1-(8-quinolinylsulfonyl)-2-pyrrolidinyl]methanone], the EC50 was over 95 µM. CCCc1ccc(Oc2c[nH]nc2-c2ccc(O)cc2O)cc1 [(4E)-3-hydroxy-4-[4-(4-propylphenoxy)-1,2-dihydropyrazol-3-ylidene]-1-cyclohexa-2,5-dienone] gave an EC50 of 18.2 µM. COc1ccc(C(=O)C2C(=O)C(=O)N(CC3CCCO3)C2c2cccc(OC)c2)cc1 (stereo not given) [(4Z)-4-[hydroxy-(4-methoxyphenyl)methylene]-5-(3-methoxyphenyl)-1-(tetrahydrofurfuryl)pyrrolidine-2,3-quinone] gave an EC50 of over 95 µM. COc1ccc(CCNc2c(C)c(C)nc3ncnn23)cc1 [(5,6-Dimethyl-[1,2,4]triazolo[1,5-a]pyrimidin-7-yl)-[2-(4-methoxy-phenyl)-ethyl]-amine] was tested, and the EC50 was 3.72 µM. For Cc1nn(C(=O)c2cccs2)c(N)c1-c1ccccc1 [(5-amino-3-methyl-4-phenyl-1-pyrazolyl)-thiophen-2-ylmethanone], the EC50 was 4.9 µM. CCC(NCc1ccc2c(c1)OCO2)=C1C(=O)NC(=O)N(C2CCCCC2)C1=O [(5E)-5-[1-(1,3-benzodioxol-5-ylmethylamino)propylidene]-1-cyclohexyl-1,3-diazinane-2,4,6-trione] showed an EC50 of 8.66 µM. Work on CCc1c(C)nc2ncnn2c1NCCc1ccc(OC)cc1 [(6-Ethyl-5-methyl-[1,2,4]triazolo[1,5-a]pyrimidin-7-yl)-[2-(4-methoxy-phenyl)-ethyl]-amine] yielded an EC50 of 9.1 µM. CCc1ccc2oc(-c3cc(N)cc(C)c3O)nc2c1 [(6E)-4-amino-6-(5-ethyl-3H-1,3-benzoxazol-2-ylidene)-2-methyl-1-cyclohexa-2,4-dienone] was tested, and the EC50 was 11.6 µM. C=C(C)COc1ccc(-c2nc(N)nc(C)c2Oc2ccccc2OC)c(O)c1 [(6E)-6-[2-amino-5-(2-methoxyphenoxy)-6-methyl-1H-pyrimidin-4-ylidene]-3-(2-methylallyloxy)cyclohexa-2,4-dien-1-one] showed an EC50 of 2.79 µM. In the case of COc1ccc(-c2n[nH]cc2-c2ccc3c(c2)OCCO3)c(O)c1 [(6E)-6-[4-(2,3-dihydro-1,4-benzodioxin-6-yl)-1,2-dihydropyrazol-3-ylidene]-3-methoxycyclohexa-2,4-dien-1-one], the EC50 is reported as 1.49 µM. CCOC(=O)CN(C(=O)CSc1nnc(-c2cccc(OC)c2)o1)c1ccc(F)cc1 [((4-Fluoro-phenyl)-{2-[5-(3-methoxy-phenyl)-[1,3,4]oxadiazol-2-ylsulfanyl]-acetyl}-amino)-acetic acid ethyl ester] showed an EC50 of 2.11 µM. Work on Cc1noc(/C=C/N(C)C)c1S(=O)(=O)N1CCc2ccccc21 [(E)-2-[4-(2,3-dihydroindol-1-ylsulfonyl)-3-methyl-1,2-oxazol-5-yl]-N,N-dimethyl-ethenamine] yielded an EC50 of over 95 µM. With CC(=N)C(C#N)C(=O)CSc1nc2cc(Cl)ccc2s1 (stereo not given) [(E)-3-amino-2-[2-[(5-chloro-1,3-benzothiazol-2-yl)sulfanyl]acetyl]but-2-enenitrile] the EC50 was 11.1 µM. In the case of CC(=N)C(C#N)C(=O)CSc1nnc(SCc2ccc(Cl)cc2)s1 (stereo not given) [(E)-3-amino-2-[2-[[5-[(4-chlorobenzyl)thio]-1,3,4-thiadiazol-2-yl]thio]acetyl]but-2-enenitrile], the EC50 is reported as 9.63 µM. For Cc1noc(/C=C/N(C)C)c1S(=O)(=O)N1CCN(c2ccccc2)CC1 [(E)-N,N-dimethyl-2-[3-methyl-4-(4-phenylpiperazin-1-yl)sulfonyl-1,2-oxazol-5-yl]ethenamine], the EC50 was over 95 µM. In the case of O=S(=O)(C/C(=C/CO)S(=O)(=O)c1ccccc1)c1ccccc1 [(Z)-3,4-bis(benzenesulfonyl)but-2-en-1-ol], the EC50 is reported as 8.68 µM. CC(=O)Nc1cc(OC(C)=O)c2nonc2c1OC(C)=O [Acetic acid 7-acetoxy-5-acetylamino-benzo[1,2,5]oxadiazol-4-yl ester] showed an EC50 of 5.71 µM. In the case of CCN(C(=O)C1CCCCC1)c1nnc(-c2cccnc2)s1 [Cyclohexanecarboxylic acid ethyl-(5-pyridin-3-yl-[1,3,4]thiadiazol-2-yl)-amide], the EC50 is reported as 1.75 µM. In the case of COCCN(C(=O)c1ccccc1)c1nnc(-c2cccnc2)s1 [MLS000032523], the EC50 is reported as 4.83 µM. Work on O=C(CCC(=O)N(Cc1ccco1)C(C(=O)NC1CCCC1)c1ccncc1)Nc1cccnc1 (stereo not given) [MLS000033292] yielded an EC50 of over 95 µM. Work on CCOC(=O)Nc1ccc2c(c1)N(C(=O)CCN(C)C)c1ccccc1S2 [MLS000038082] yielded an EC50 of 48.7 µM. Work on CCCCOc1ncnc2c1[nH]c1ccccc12 [MLS000041483] yielded an EC50 of 4.52 µM. For COc1ccc(CCNc2ncnc3c2oc2ccccc23)cc1OC [MLS000041708], the EC50 was 0.601 µM. Work on CCCC(=O)Nc1ccc2oc(-c3ccc(OC)c(Br)c3)nc2c1 [MLS000042482] yielded an EC50 of 4.14 µM. In the case of CCOc1ccccc1OCCCCCc1c(C)n[nH]c1C [MLS000043342], the EC50 is reported as 1.27 µM. Cc1cc(C(=O)Nc2sc(C)c(-c3ccc(F)cc3)c2C(N)=O)no1 [MLS000043467] showed an EC50 of 5.47 µM. For O=C(Nc1ccc(-c2noc(CCc3ccccc3)n2)cc1)c1cccnc1 [MLS000047253], the EC50 was 3.4 µM. Work on COc1ccc(-n2nc3ccc(NS(C)(=O)=O)cc3n2)cc1Cl [MLS000049114] yielded an EC50 of 0.126 µM. In the case of N#C/C(=C/c1ccc(N2CCCCCC2)o1)c1ccc(F)cc1 [MLS000051438], the EC50 is reported as over 10 µM. For O=S(=O)(Nc1ccc2c(c1)OCCO2)c1ccc2oc3ccccc3c2c1 [MLS000051884], the EC50 was 7.43 µM. For CCN=c1scc(-c2ccc3c(c2)NC(=O)CO3)n1N=C1CCCC1 [MLS000054638], the EC50 was 7.16 µM. Work on CCOC(=O)c1c(C)[nH]c(C(=O)C(C)OC(=O)c2cccc(OCc3c(C)noc3C)c2)c1C (stereo not given) [MLS000054923] yielded an EC50 of 4.58 µM. Compound COc1cc(C(=O)N2CCN(S(=O)(=O)c3ccc(C)cc3)CC2)ccc1OCc1c(C)noc1C [MLS000056221] has an EC50 of over 95 µM. CC(=O)Nc1ccccc1OCC(=O)c1cc(C)n(Cc2cccs2)c1C [MLS000056239] was tested, and the EC50 was 0.223 µM. With c1ccc2c(c1)oc1c(NCc3ccc4c(c3)OCO4)ncnc12 [MLS000057790] the EC50 was 6.46 µM. Cc1csc(NC(=O)c2nc(-c3ccccc3)n(-c3ccccc3)n2)n1 [MLS000058347] was tested, and the EC50 was 9.69 µM. Work on CCCC(=O)Nc1ccc(-c2nc3cc(C)ccc3o2)cc1 [MLS000061826] yielded an EC50 of 6.36 µM. O=C(Nc1ccc(N2CCOCC2)c(Cl)c1)c1cccc(F)c1 [MLS000066209] showed an EC50 of 0.935 µM. Cc1ccc2oc(-c3ccc(NC(=O)c4cccnc4)cc3)nc2c1 [MLS000068975] gave an EC50 of 2.81 µM.

Same assay, conditions: inactive by the depositor's call
Work on Cc1cc(C(=O)N2CCN(C(c3ccccc3)c3ccccc3)CC2)no1 [(4-benzhydrylpiperazin-1-yl)-(5-methyl-1,2-oxazol-3-yl)methanone] yielded an EC50 of 19.1 µM. Compound CCCn1c(CNc2ccc(Br)cc2)nc2ccccc21 [(4-bromophenyl)-[(1-propylbenzimidazol-2-yl)methyl]amine] has an EC50 of 12.8 µM. CCN(CC)C(=O)Oc1ccc2c(=O)c(-c3ccccc3)coc2c1 [(4-oxidanylidene-3-phenyl-chromen-7-yl) N,N-diethylcarbamate] showed an EC50 of 27.2 µM. CS(=O)(=O)n1nc(OC(=O)c2cccc3ccccc23)cc1N [(5-amino-1-methylsulfonylpyrazol-3-yl) naphthalene-1-carboxylate] showed an EC50 of 11.9 µM. Cc1ccc(C(=O)c2cncc(Br)c2)cc1 [(5-bromanylpyridin-3-yl)-(4-methylphenyl)methanone] was tested, and the EC50 was 12.6 µM. Compound O=C(c1cc(-c2ccccc2)on1)N1CCN(Cc2ccc3c(c2)OCO3)CC1 [(5-phenylisoxazol-3-yl)-(4-piperonylpiperazino)methanone] has an EC50 of 58.7 µM. For Brc1ccc2ncnc(Nc3ccc(N4CCOCC4)cc3)c2c1 [(6-bromoquinazolin-4-yl)-(4-morpholinophenyl)amine], the EC50 was 15.1 µM. Compound Cn1cccc1C(=O)OCc1cc(Cl)cc2c1OCOC2 [(6-chloranyl-4H-1,3-benzodioxin-8-yl)methyl 1-methylpyrrole-2-carboxylate] has an EC50 of 17.2 µM. In the case of CCc1ccc2c(COC(=O)c3n[nH]c4ccccc34)cc(=O)oc2c1 [(7-ethyl-2-oxochromen-4-yl)methyl 1H-indazole-3-carboxylate], the EC50 is reported as 10.4 µM. In the case of CC1=C(/C=C/C(C)=C/C=C/C(C)=C/C(=O)O)C(C)(C)CCC1 [ALL-TRANS-RETINOIC ACID], the EC50 is reported as 34.1 µM. In the case of CC1Cc2cc(-c3csc(NC(=O)Cc4cccs4)n3)ccc2N1S(C)(=O)=O (stereo not given) [MLS000027766], the EC50 is reported as 10.4 µM. CC(C)(C)NC(=O)CSc1ncnc2c1nnn2Cc1ccccc1Cl [MLS000034488] showed an EC50 of 12.7 µM. Cc1ccccc1OCC(=O)Nc1ccc(N2CCN(C(=O)C(C)C)CC2)c(Cl)c1 [MLS000034491] showed an EC50 of 15.2 µM. Work on CC(=O)c1sc(NC(=O)C2(F)C(F)(F)C(F)(F)C(F)(F)C(F)(F)C2(F)F)nc1C [MLS000040071] yielded an EC50 of 31.1 µM. For CC(C)[C@H](NC(=O)OC(C)(C)C)c1nnc(SCC(=O)Nc2ccc(Br)cc2)o1 [MLS000040800], the EC50 was 16.2 µM. Compound Cc1ccc2[nH]c3c(NCc4ccco4)ncnc3c2c1 [MLS000040855] has an EC50 of 10.8 µM. CC(C)OCCCNc1ncnc2c1[nH]c1ccccc12 [MLS000041327] was tested, and the EC50 was 13.2 µM. For COc1cccc(-c2nc(-c3ccc(NC(=O)c4cccnc4)cc3)no2)c1 [MLS000047254], the EC50 was 22.1 µM. For CC(=O)Nc1ccc(S(=O)(=O)N2CCN(CCCOc3cc(C)ccc3C)CC2)cc1 [MLS000050317], the EC50 was 17.5 µM. Work on CN(Cc1cccs1)c1ncnc2sccc12 [MLS000056228] yielded an EC50 of 14.2 µM. CCCn1c(NC(=O)c2cccc(S(=O)(=O)N3CCCC3)c2)nc2ccccc21 [MLS000057540] showed an EC50 of 10.3 µM. In the case of COc1cccc(-c2csc(N3CCN(CC(=O)Nc4ccc5c(c4)OCO5)CC3)n2)c1 [MLS000070935], the EC50 is reported as 17.9 µM.
